# Test: method code SF-FL/RC, from DOI: 10.1007/bf00499868, PMID: 43479
# Details: not given
row,Compound,logP
1,CNC[C@H](O)c1ccc(O)c(O)c1,-1.37
2,C[C@H](N)[C@H](O)c1cccc(O)c1,-0.27
3,CNCC(O)c1ccc(O)c(OC)c1 (stereo unspecified),-0.64
4,COc1cc(C(O)CN)ccc1O (stereo unspecified),-1.05
5,COc1cc(CCN)ccc1O,-0.08
6,CNCC(O)c1ccc(O)cc1 (stereo unspecified),-0.45
7,CC(N)C(O)c1ccc(O)c(O)c1 (stereo unspecified),-1.43
8,NCC(O)c1ccc(O)cc1 (stereo unspecified),-0.75

# Same assay, conditions: pH 7.4
row,Compound,logD
1,COc1cc(C(O)CO)ccc1O (stereo unspecified),-0.58
2,OCC(O)c1ccc(O)c(O)c1 (stereo unspecified),-1.01
3,COc1cc(CCO)ccc1O,0.47
